Data: patent publication US8691799B2, “Materials and methods for treatment of cancer and identification of anti-cancer compounds” (priority 2001, dated 2014)

Legend:
[1] = test system: SRE-dependent pRLSRE renilla luciferase reporter; experiment: SRE-dependent luciferase reporter assay in v-Src/NIH 3T3 fibroblasts; assay type: cell-based, murine; conditions: 10 μM, 24-48 hr
From the text: DNA Binding and Transcription. The STAT3 reporter, pLucTKS3, driving expression of firefly luciferase has been previously described (Turkson, J. et al. Mol. Cell Biol., 1999, 19:7519-7528). The pLucTKS3 plasmid harbors seven copies of a sequence corresponding to the STAT3-specific binding site in the promoter of the human C-reactive protein gene (Zhang, D. et al. J. Biol. Chem., 1996, 271:9503-9509). The STAT3-independent plasmid, pRLSRE, contains two copies of the serum response element (SRE) from the c-fos promoter (Yamauchi, K. et al. J. Biol. Chem., 1993, 268:14597-14600), subcloned into renilla luciferase reporter, pRL-null (Promega Corporation, Madison, Wis.).
Transfection and Generation of Stable Clones. […]
Preparation of Cytosolic Extracts. […] Cells were resuspended in 0.4 ml of low-salt HEPES buffer (10 mM HEPES, pH 7.8, 10 mM KCl, 0.1 mM EGTA, 0.1 mM EDTA, 1 mM PMSF, and 1 mM DTT) for 15 min, lysed by the addition of 20 μl of 10% NP-40, and centrifuged (10,000×g, 30 sec, 4° C.) to obtain the cytosolic supernatant, which was used for luciferase assays (Promega Corporation) measured with a luminometer.

phosphotyrosine Src = experiment: Western blotting for phosphotyrosine Src; assay type: cell-based, human; conditions: A549 and MDA-MB-468 cells, various concentrations, 4 hr
Description: (§1) Western Blotting. Treated cell samples were lysed in 30 mM Hepes, pH 7.5, 10 mM NaCl, 5 mM MgCl2, 25 mM NaF, 1 mM EGTA, 1% Triton-X-100, 10% glycerol, 2 mM sodium orthovanadate, 10 μg/ml aprotinin, 10 μg/ml soybean trypsin inhibitor, 25 μg/ml leupeptin, 2 mM PMSF, and 6.4 mg/ml p-nitrophenylphosphate. Phospho-STAT3, phospho-AKT, phospho-MEK, and phospho-p42/p44 MAPK antibodies were obtained from Cell Signaling Technologies, Cambridge, Mass. Antibodies to STAT3, JAK2, and phospho-INK were purchased from Santa Cruz Biotechnology, Santa Cruz, Calif. Phospho-JAK2 antibody came from Upstate Biotechnology, Lake Placid, N.Y. Membranes were blocked in either 5% milk in PBS, pH 7.4, containing 0.1% Tween-20 (PBS-T) or 1% BSA in TBS, pH 7.5, containing 0.1% Tween-20 (TBS-T). Phospho-specific antibodies (excepting P-MAPK and P-JNK) were incubated in 1% BSA in TBS-T while all other antibodies were diluted in 5% milk in PBS-T for either 2 hr at room temperature or overnight at 4° C. HRP-conjugated secondary antibodies (Jackson ImmunoResearch) were diluted in 5% milk in either PBS-T or TBS-T at 1:1000 dilution for one hour at room temperature. Western blots were visualized using enhanced chemiluminescence as described previously (Blaskovich, M. A. et al. Nat. Biotechnol., 2000, 18:1065-1070).

phosphotyrosine JAK2 = experiment: Western blotting for phosphotyrosine JAK2; assay type: cell-based, human
Description: as §1

STAT3 = experiment: Western blotting for STAT3 protein levels; assay type: cell-based, human; conditions: A549 and MDA-MB-468 cells
Description: as §1
Immunoprecipitation of STAT3. […]

Compound: CC(C)(O)/C=C/C(=O)[C@](C)(O)[C@H]1[C@H](O)C[C@@]2(C)[C@@H]3CC=C4[C@@H](C=C(O)C(=O)C4(C)C)[C@]3(C)C(=O)C[C@]12C [JSI-124, cucurbitacin I]
- pRLSRE (SRE-dependent) luciferase reporter [1]: without affecting
- levels of tyrosine phosphorylated Src (phosphotyrosine Src): not those of tyrosine phosphorylated Src
- levels of tyrosine phosphorylated JAK2 (phosphotyrosine JAK2; A549 and MDA-MB-468 cells, various concentrations, 4 hr): effective at suppressing the levels of tyrosine phosphorylated JAK2
- inhibition of phospho JAK2 levels (in words) (phosphotyrosine JAK2; A-549 cells, 0-10 μM): inhibits both phospho STAT3 and phospho JAK2 levels
- IC50 (phosphotyrosine JAK2; A-549 cells, Western blotting, read-out: IC50 for phospho-JAK2): 200 nM
- STAT3 protein levels (STAT3): no effect on the protein levels of STAT3 and JAK2
